This is an account of results in US20190135887A1, “METABOLICALLY STABLE SPEXIN PEPTIDE ANALOGS” (UNIVERSITÉ DE STRASBOURG, priority 2016, published 2019).

Like-named read-outs stand apart in the source and are kept apart here. Peptide text beside a SMILES is read from it. * marks the point of attachment. Propanoyl(3-C8F17) = O=C(CCC(F)(F)C(F)(F)C(F)(F)C(F)(F)C(F)(F)C(F)(F)C(F)(F)C(F)(F)F)*

The target in data set [1] is T1, human galanin GAL2 receptor (Homo sapiens, UniProt O43603).
T1 construct: expressed in transfected cells; host or cells: CHO cells (membrane homogenates)
T1 sequence (O43603 1-387): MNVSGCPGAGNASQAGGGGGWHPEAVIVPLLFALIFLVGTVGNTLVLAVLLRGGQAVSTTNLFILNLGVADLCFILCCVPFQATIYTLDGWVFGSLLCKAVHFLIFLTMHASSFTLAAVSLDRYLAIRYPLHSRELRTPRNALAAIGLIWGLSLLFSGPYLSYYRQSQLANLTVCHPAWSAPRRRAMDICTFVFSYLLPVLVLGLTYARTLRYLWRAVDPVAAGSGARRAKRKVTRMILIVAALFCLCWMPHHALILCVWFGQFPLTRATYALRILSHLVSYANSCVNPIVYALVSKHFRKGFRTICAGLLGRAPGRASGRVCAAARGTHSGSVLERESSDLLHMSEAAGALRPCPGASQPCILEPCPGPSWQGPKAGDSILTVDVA
The data set is described as follows: Radioligand binding assay, [125I]galanin, transfected CHO cell membranes. Particulars: read-out: Affinity % of inhibition at 100 nM. On the procedure:
Following incubation, the samples are filtered rapidly under vacuum through glass fiber filters (GF/B, Packard) presoaked with 0.3% PEI and rinsed several times with ice-cold 50 mM Tris-HCl using a 96-sample cell harvester (Unifilter, Packard). The filters are dried then counted for radioactivity in a scintillation counter (Topcount, Packard) using a scintillation cocktail (Microscint 0, Packard). The results are expressed as a percent inhibition of the control radioligand specific binding.

Another data set has as its target T2, human GALR1 (Homo sapiens, UniProt P47211).
T2 construct: expressed in transfected cells; transiently transfected with pGloSensor-22F
T2 sequence (P47211 1-349): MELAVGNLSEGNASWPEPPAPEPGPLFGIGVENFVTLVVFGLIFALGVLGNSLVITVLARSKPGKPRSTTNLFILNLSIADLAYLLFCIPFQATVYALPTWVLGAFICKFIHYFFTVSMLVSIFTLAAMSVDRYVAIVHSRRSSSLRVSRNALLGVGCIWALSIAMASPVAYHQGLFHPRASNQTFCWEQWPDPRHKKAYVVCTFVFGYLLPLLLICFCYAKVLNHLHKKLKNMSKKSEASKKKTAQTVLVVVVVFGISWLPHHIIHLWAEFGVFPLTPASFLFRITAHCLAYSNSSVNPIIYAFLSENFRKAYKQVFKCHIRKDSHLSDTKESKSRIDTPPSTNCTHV
The data set can be described thus: Forskolin-induced cAMP accumulation, GloSensor cAMP assay in HEK293 cells. The conditions noted are these: HEK293 cells stably expressing GalR1, 1 μM compound. In kind it is cell-based. As for the experimental part:
The effects were examined by using the GloSensor™ cAMP Assay according to manufacturer recommendations (Promega, Madison Wis., USA) with a few modifications. […] Following pre-equilibration for 2 h at 25° C., D-luciferin-loaded cells were distributed (100,000 cells per well) in a white 96-well plate and kinetic recordings of their luminescence level were acquired using a FlexStation II (Molecular Devices, Sunnyvale Calif., USA). Compounds to be tested were injected at various concentrations 10 min before forskolin addition (0.5 μM final concentration) and readings were pursued for 30 min. Experiments were conducted at 25° C. in the presence of 0.1 mM IBMX to prevent the degradation of cAMP by phospodiesterases.
A general note: Changes in cAMP serve as a functional read-out for many G protein-coupled receptors.

Another data set is described as follows: Human plasma stability. It is filed as in vitro ADME. Particulars: 37° C., 2 h incubation, read-out: Human plasma stability (t1/2). As for the experimental part:
This procedure is designed to determine the stability of a test compound in blood or plasma from human or animal species in a 96-well plate format. The test compound is quantified at 5 time points by HPLC-MS/MS analysis. Test concentration: 1 μM with a final DMSO concentration of 0.5%. Experimental protocol: Blood or plasma are pre-warmed at 37° C. water bath for 5 min, followed by addition of the test compound. The incubation is performed in a 37° C. water bath for 2 h. An aliquot of the incubation mixture is transferred to acetonitrile at 0, 0.5, 1, 1.5 and 2 h, respectively. Samples are then mixed and centrifuged. Supernatants are used for HPLC-MS/MS analysis. Reference compounds Propoxycaine and propantheline are tested simultaneously with the test compound in each assay. Analytical methods Samples are analyzed by HPLC-MS/MS using selected reaction monitoring. The HPLC system consists of a binary LC pump with autosampler, a C-18 column, and a gradient. Conditions may be adjusted as necessary. Data analysis Peak areas corresponding to the test compound are recorded. The compound remaining (%) is calculated by comparing the peak area at each time point to time zero. The half-life is calculated from the slope of the initial linear range of the logarithmic curve of compound remaining (%) vs. time, assuming first order kinetics.

Data set [2] is described as follows: Solubility in water by visual observation. It is filed as physicochemical. The conditions noted are these: dissolution in water to reach 100 μM. On the procedure: The resulting solution was vortexed 1 min following by 1 min in bath sonication. Solubility was then assessed by visual observation of the resulting dispersion (Clear/Cloudy and presence of particulates).

The target of another data set is T3, GalR2 (Homo sapiens, UniProt O43603).
T3 construct: expressed in transfected cells; host or cells: CHO cells
T3 sequence (O43603 1-387): T1 sequence (O43603 1-387)
The data set is described as follows: Calcium mobilization in CHO cells expressing GalR2. It is filed as cell-based.

Data set [3] is described as follows: Non-specific adsorption to Eppendorf protein LoBind tubes. The conditions noted are these: 10 μM in HEPES/BSA buffer. As for the experimental part:
The propensity of spexin analogs to bind to Eppendorf protein LoBind tubes was evaluated.
A solution of 10 μM of spexin analogs in solution in HEPES/BSA buffer was added to Eppendorf protein LoBind tubes, stirred for 5 min and vortexed for 2 min. The supernatant was removed from the tube and acetonitrile was added to dissolve the compound adsorbed to the plastic. The amount of peptide recovered was then evaluated by HPLC-MS/MS following the same protocol than above described for plasma stability analysis. The non-specific adsorption of peptides (%) was calculated by comparing the peak area of each compound recovered to that obtained with the same compound in DMSO (prevent the adsorption of the compounds to plastic).

A further data set has as its system C57BL/6N male mice. The data set is described as follows: Tail immersion test (nociception). It is filed as in vivo. On the procedure: Tail immersion test: Nociception tests were performed on male, awake C57BL/6N male mice (25-30 g weight; Janvier Labs, France). Animals were housed in groups of five per cage and kept under a 12 h/12 h light/dark cycle at 21±1° C. with ad libitum access to food and water. Experiments were performed during the light-on phase of the cycle. Mice were habituated to the testing room and equipment and handled for 1 week before starting behavioural experiments. The nociceptive thermal threshold of mice was determined using the tail immersion test. Mice were restrained in a grid pocket and their tail was immersed in a thermostated water bath. The latency (in sec) for tail withdrawal from hot water (47±0.5° C.) was taken as a measure of the nociceptive response.

Where [4] appears, read: CHO cells expressing GalR2, Fluo-4 AM, 37° C., read-out: EC50 Ca2+ production.

Broadly, the inhibition is how much of the control response was suppressed. The term solubility denotes the concentration that dissolves in the medium under given conditions. A low value points to a poorly soluble substance. Turning to `CSCC[C@H](NC(=O)[C@H](C)NC(=O)[C@H](CCC(N)=O)NC(=O)[C@@H]1CCCN1C(=O)[C@@H](NC(=O)[C@H](Cc1c[nH]c2ccccc12)NC(=O)[C@@H](N)CC(N)=O)[C@@H](C)O)C(=O)N[C@@H](CC(C)C)C(=O)N[C@@H](Cc1ccc(O)cc1)C(=O)N[C@@H](CC(C)C)C(=O)N[C@@H](CCCCN)C(=O)NCC(=O)N[C@@H](C)C(=O)N[C@@H](CCC(N)=O)C(N)=O` [SPEXIN], the inhibition at 0.1 µM in data set [1] was determined as 68.3%. Further, at human GALR1, the “% of activity at 1 μM” value is recorded as 0%. In “Human plasma stability”, the half-life at 1 μM came out at 2.52 h. In data set [2], this molecule yielded a solubility at 2 min of over 100 µM.

Usually EC50 stands for the concentration at which the effect is half-maximal. Take `CSCC[C@H](NC(=O)[C@H](C)NC(=O)[C@H](CCC(N)=O)NC(=O)[C@@H]1CCCN1C(=O)[C@@H](NC(=O)[C@H](Cc1c[nH]c2ccccc12)NC(=O)[C@H](CC(N)=O)NC(C)=O)[C@@H](C)O)C(=O)N[C@@H](CC(C)C)C(=O)N[C@@H](Cc1ccc(O)cc1)C(=O)N[C@@H](CC(C)C)C(=O)N[C@@H](CCCCN)C(=O)NCC(=O)N[C@@H](C)C(=O)N[C@@H](CCC(N)=O)C(=O)N[C@@H](CCCCNC(=O)C(CCCNC(=N)N)NC(=O)CNC(=O)C(CCCNC(=N)N)NC(=O)CCC(F)(F)C(F)(F)C(F)(F)C(F)(F)C(F)(F)C(F)(F)C(F)(F)C(F)(F)F)C(N)=O` (some centres unmarked) [LE-146]: the 50% effective concentration (EC50) on GalR2 was 8.4 ± 0.7 nM.

As for `CSCC[C@H](NC(=O)[C@H](C)NC(=O)[C@H](CCC(N)=O)NC(=O)[C@@H]1CCCN1C(=O)[C@@H](NC(=O)[C@H](Cc1c[nH]c2ccccc12)NC(=O)[C@H](CC(N)=O)NC(C)=O)[C@@H](C)O)C(=O)N[C@@H](CC(C)C)C(=O)N[C@@H](Cc1ccc(O)cc1)C(=O)N[C@@H](CC(C)C)C(=O)N[C@@H](CCCCN)C(=O)NCC(=O)N[C@@H](C)C(=O)N[C@@H](CCC(N)=O)C(=O)N[C@@H](CCCCNC(=O)CCC(F)(F)C(F)(F)C(F)(F)C(F)(F)C(F)(F)C(F)(F)C(F)(F)C(F)(F)F)C(N)=O` [LE-128], the “% of activity at 1 μM” value on human GALR1 is on record as 0%. In addition, the concentration for a half-maximal effect (EC50) at GalR2 (setting [4]) is 2.3 ± 4 nM.

On to `CSCC[C@H](NC(=O)[C@H](C)NC(=O)[C@H](CCC(N)=O)NC(=O)[C@@H]1CCCN1C(=O)[C@@H](NC(=O)[C@H](Cc1c[nH]c2ccccc12)NC(=O)[C@H](CC(N)=O)NC(=O)[C@H](CCCNC(=N)N)NC(=O)CNC(=O)[C@H](CCCNC(=N)N)NC(=O)CCC(F)(F)C(F)(F)C(F)(F)C(F)(F)C(F)(F)C(F)(F)C(F)(F)C(F)(F)F)[C@@H](C)O)C(=O)N[C@@H](CC(C)C)C(=O)N[C@@H](Cc1ccc(O)cc1)C(=O)N[C@@H](CC(C)C)C(=O)N[C@@H](CCCCN)C(=O)NCC(=O)N[C@@H](C)C(=O)N[C@@H](CCC(N)=O)C(N)=O` [LE-130] ({Propanoyl(3-C8F17)}-RGRNWTPQAMLYLKGAQ-NH2), for which the inhibition at 0.1 µM in data set [1] stood at 98.4%. Moreover, the “% of activity at 1 μM” value at human GALR1 was determined as 0%. The EC50 at GalR2 (setting [4]) came out at 0.089 ± 0.04 nM. In addition, the “Non-specific adsorption of peptide” value in data set [3] came out at 15%. For the same molecule, the half-life at 1 μM in “Human plasma stability” was 5.7 h. Also, the solubility in data set [2] is over 100 µM.

For the molecule `CSCC[C@H](NC(=O)[C@H](C)NC(=O)[C@H](CCC(N)=O)NC(=O)[C@@H]1CCCN1C(=O)[C@@H](NC(=O)[C@H](Cc1c[nH]c2ccccc12)NC(=O)[C@H](CC(N)=O)NC(=O)CCC(F)(F)C(F)(F)C(F)(F)C(F)(F)C(F)(F)C(F)(F)C(F)(F)C(F)(F)F)[C@@H](C)O)C(=O)N[C@@H](CC(C)C)C(=O)N[C@@H](Cc1ccc(O)cc1)C(=O)N[C@@H](CC(C)C)C(=O)N[C@@H](CCCCN)C(=O)NCC(=O)N[C@@H](C)C(=O)N[C@@H](CCC(N)=O)C(N)=O` [LE-144], in data set [1], the inhibition at 0.1 µM is 100%. Besides, the “% of activity at 1 μM” value on human GALR1 is given as 0%. Further, the 50% effective concentration (EC50) at GalR2 (setting [4]) worked out at 0.038 ± 0.008 nM. Further, the “Non-specific adsorption of peptide” value in data set [3] is recorded as 42%. Further, the half-life at 1 μM in “Human plasma stability” is 2.5 h. Further, the “tail immersion withdrawal latency” value in the data set on C57BL/6N male mice (0.1 nmol icv, 15 min, baseline 9.99±0.5 sec) worked out at 14.26 ± 0.93 s; with C57BL/6N male mice (0.1 nmol icv, 30 min, baseline 9.99±0.5 sec), 14.06 ± 0.34 s; in the data set on C57BL/6N male mice (1 nmol icv, 15 min, baseline 10.12±0.59 sec), 15.58 ± 0.61 s; in the data set on C57BL/6N male mice (1 nmol icv, 30 min, baseline 10.12±0.59 sec), 13.94 ± 0.75 s. In addition, the solubility in data set [2] is over 100 µM.
